From the supplement of paper PMC8967900

Tested on: 380
Assay: selective drug sensitivity score (sDSS, relative to normal bone marrow) (sDSS (score)); higher = more potent and effective on the cell line relative to normal bone marrow cells
Details: 72 h
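Further: ALL cell lines in 384-well plates, five doses spanning 10,000-fold, each plate scaled between vehicle and 100 µmol/L benzalkonium chloride controls, sDSS an adapted area-under-curve metric.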

Structure (SMILES)	selective drug sensitivity score
CC#CC(=O)N1CC[C@@H](n2c(=O)n(-c3ccc(Oc4ccccc4)cc3)c3c(N)ncnc32)C1 [Tirabrutinib] (top concentration 1000 nM)	1.2
CC(C)C[C@@H](C(=O)N[C@H](C(=O)OC1CCCC1)c1ccccc1)[C@H](O)C(=O)NO [Tosedostat] (top concentration 10000 nM)	5.76
CS(=O)(=O)c1ccc(-c2cnc(N)c(C(=O)Nc3ccccc3)n2)cc1 [VE-821] (top concentration 10000 nM)	2.54
CNC(=O)c1ccccc1Nc1cc(Nc2ccc(N3CCOCC3)cc2OC)ncc1C(F)(F)F [VS-4718] (top concentration 10000 nM)	-5
Cc1cccc(-c2[nH]c(CNc3ccccc3F)nc2-c2ccc3ncnn3c2)n1 [Vactosertib (TEW-7197)] (top concentration 2500 nM)	0.8
O=C(/C=C\n1cnc(-c2cc(C(F)(F)F)cc(C(F)(F)F)c2)n1)NNc1ccccn1 [Verdinexor] (top concentration 1000 nM)	12
CC[C@@H]1C(=O)N(C)c2cnc(Nc3ccc(C(=O)N[C@H]4CC[C@H](N5CCN(CC6CC6)CC5)CC4)cc3OC)nc2N1C(C)C [Volasertib] (top concentration 1000 nM)	15
O=C(CCCCCCC(=O)Nc1ccccc1)NO [Vorinostat] (top concentration 10000 nM)	8.8

Tested on: 697
Assay: as above
Details: 72 h

Structure (SMILES)	selective drug sensitivity score
CC#CC(=O)N1CC[C@@H](n2c(=O)n(-c3ccc(Oc4ccccc4)cc3)c3c(N)ncnc32)C1 [Tirabrutinib] (top concentration 1000 nM)	0
CC(C)C[C@@H](C(=O)N[C@H](C(=O)OC1CCCC1)c1ccccc1)[C@H](O)C(=O)NO [Tosedostat] (top concentration 10000 nM)	-1.54
CS(=O)(=O)c1ccc(-c2cnc(N)c(C(=O)Nc3ccccc3)n2)cc1 [VE-821] (top concentration 10000 nM)	-0.66
CNC(=O)c1ccccc1Nc1cc(Nc2ccc(N3CCOCC3)cc2OC)ncc1C(F)(F)F [VS-4718] (top concentration 10000 nM)	0.7
Cc1cccc(-c2[nH]c(CNc3ccccc3F)nc2-c2ccc3ncnn3c2)n1 [Vactosertib (TEW-7197)] (top concentration 2500 nM)	-0.5
O=C(/C=C\n1cnc(-c2cc(C(F)(F)F)cc(C(F)(F)F)c2)n1)NNc1ccccn1 [Verdinexor] (top concentration 1000 nM)	6.34
CC[C@@H]1C(=O)N(C)c2cnc(Nc3ccc(C(=O)N[C@H]4CC[C@H](N5CCN(CC6CC6)CC5)CC4)cc3OC)nc2N1C(C)C [Volasertib] (top concentration 1000 nM)	12.1
O=C(CCCCCCC(=O)Nc1ccccc1)NO [Vorinostat] (top concentration 10000 nM)	10.1

Tested on: ALL-SIL
Assay: as above
Details: 72 h

Structure (SMILES)	selective drug sensitivity score
CC#CC(=O)N1CC[C@@H](n2c(=O)n(-c3ccc(Oc4ccccc4)cc3)c3c(N)ncnc32)C1 [Tirabrutinib] (top concentration 1000 nM)	0
CC(C)C[C@@H](C(=O)N[C@H](C(=O)OC1CCCC1)c1ccccc1)[C@H](O)C(=O)NO [Tosedostat] (top concentration 10000 nM)	1.06
CS(=O)(=O)c1ccc(-c2cnc(N)c(C(=O)Nc3ccccc3)n2)cc1 [VE-821] (top concentration 10000 nM)	4.94
CNC(=O)c1ccccc1Nc1cc(Nc2ccc(N3CCOCC3)cc2OC)ncc1C(F)(F)F [VS-4718] (top concentration 10000 nM)	4.3
Cc1cccc(-c2[nH]c(CNc3ccccc3F)nc2-c2ccc3ncnn3c2)n1 [Vactosertib (TEW-7197)] (top concentration 2500 nM)	-0.5
O=C(/C=C\n1cnc(-c2cc(C(F)(F)F)cc(C(F)(F)F)c2)n1)NNc1ccccn1 [Verdinexor] (top concentration 1000 nM)	3.74
CC[C@@H]1C(=O)N(C)c2cnc(Nc3ccc(C(=O)N[C@H]4CC[C@H](N5CCN(CC6CC6)CC5)CC4)cc3OC)nc2N1C(C)C [Volasertib] (top concentration 1000 nM)	12.7
O=C(CCCCCCC(=O)Nc1ccccc1)NO [Vorinostat] (top concentration 10000 nM)	7.5

Tested on: CCRF-HSB2
Assay: as above
Details: 72 h

Structure (SMILES)	selective drug sensitivity score
CC#CC(=O)N1CC[C@@H](n2c(=O)n(-c3ccc(Oc4ccccc4)cc3)c3c(N)ncnc32)C1 [Tirabrutinib] (top concentration 1000 nM)	0.8
CC(C)C[C@@H](C(=O)N[C@H](C(=O)OC1CCCC1)c1ccccc1)[C@H](O)C(=O)NO [Tosedostat] (top concentration 10000 nM)	3.16
CS(=O)(=O)c1ccc(-c2cnc(N)c(C(=O)Nc3ccccc3)n2)cc1 [VE-821] (top concentration 10000 nM)	4.44
CNC(=O)c1ccccc1Nc1cc(Nc2ccc(N3CCOCC3)cc2OC)ncc1C(F)(F)F [VS-4718] (top concentration 10000 nM)	3.5
Cc1cccc(-c2[nH]c(CNc3ccccc3F)nc2-c2ccc3ncnn3c2)n1 [Vactosertib (TEW-7197)] (top concentration 2500 nM)	5.1
O=C(/C=C\n1cnc(-c2cc(C(F)(F)F)cc(C(F)(F)F)c2)n1)NNc1ccccn1 [Verdinexor] (top concentration 1000 nM)	9.84
CC[C@@H]1C(=O)N(C)c2cnc(Nc3ccc(C(=O)N[C@H]4CC[C@H](N5CCN(CC6CC6)CC5)CC4)cc3OC)nc2N1C(C)C [Volasertib] (top concentration 1000 nM)	12.4
O=C(CCCCCCC(=O)Nc1ccccc1)NO [Vorinostat] (top concentration 10000 nM)	4.8

Tested on: COG-LL-394h
Assay: as above
Details: 72 h

Structure (SMILES)	selective drug sensitivity score
CC#CC(=O)N1CC[C@@H](n2c(=O)n(-c3ccc(Oc4ccccc4)cc3)c3c(N)ncnc32)C1 [Tirabrutinib] (top concentration 1000 nM)	0
CC(C)C[C@@H](C(=O)N[C@H](C(=O)OC1CCCC1)c1ccccc1)[C@H](O)C(=O)NO [Tosedostat] (top concentration 10000 nM)	1.26
CS(=O)(=O)c1ccc(-c2cnc(N)c(C(=O)Nc3ccccc3)n2)cc1 [VE-821] (top concentration 10000 nM)	-0.66
CNC(=O)c1ccccc1Nc1cc(Nc2ccc(N3CCOCC3)cc2OC)ncc1C(F)(F)F [VS-4718] (top concentration 10000 nM)	-0.4
Cc1cccc(-c2[nH]c(CNc3ccccc3F)nc2-c2ccc3ncnn3c2)n1 [Vactosertib (TEW-7197)] (top concentration 2500 nM)	-0.5
O=C(/C=C\n1cnc(-c2cc(C(F)(F)F)cc(C(F)(F)F)c2)n1)NNc1ccccn1 [Verdinexor] (top concentration 1000 nM)	3.64
CC[C@@H]1C(=O)N(C)c2cnc(Nc3ccc(C(=O)N[C@H]4CC[C@H](N5CCN(CC6CC6)CC5)CC4)cc3OC)nc2N1C(C)C [Volasertib] (top concentration 1000 nM)	7.7
O=C(CCCCCCC(=O)Nc1ccccc1)NO [Vorinostat] (top concentration 10000 nM)	1
